pIC50: −log10 of the molar value.
Legend:
[1] = target: T1, Cav1.2 (ICa, ICaL) (Homo sapiens, UniProt Q13936); assay: cell-based
T1 construct: gene CACNA1C

[2] = target: T2, Nav1.5 (INa) (Homo sapiens, UniProt Q14524); assay: cell-based
T2 construct: gene SCN5A
T2 sequence (Q14524 whole entry): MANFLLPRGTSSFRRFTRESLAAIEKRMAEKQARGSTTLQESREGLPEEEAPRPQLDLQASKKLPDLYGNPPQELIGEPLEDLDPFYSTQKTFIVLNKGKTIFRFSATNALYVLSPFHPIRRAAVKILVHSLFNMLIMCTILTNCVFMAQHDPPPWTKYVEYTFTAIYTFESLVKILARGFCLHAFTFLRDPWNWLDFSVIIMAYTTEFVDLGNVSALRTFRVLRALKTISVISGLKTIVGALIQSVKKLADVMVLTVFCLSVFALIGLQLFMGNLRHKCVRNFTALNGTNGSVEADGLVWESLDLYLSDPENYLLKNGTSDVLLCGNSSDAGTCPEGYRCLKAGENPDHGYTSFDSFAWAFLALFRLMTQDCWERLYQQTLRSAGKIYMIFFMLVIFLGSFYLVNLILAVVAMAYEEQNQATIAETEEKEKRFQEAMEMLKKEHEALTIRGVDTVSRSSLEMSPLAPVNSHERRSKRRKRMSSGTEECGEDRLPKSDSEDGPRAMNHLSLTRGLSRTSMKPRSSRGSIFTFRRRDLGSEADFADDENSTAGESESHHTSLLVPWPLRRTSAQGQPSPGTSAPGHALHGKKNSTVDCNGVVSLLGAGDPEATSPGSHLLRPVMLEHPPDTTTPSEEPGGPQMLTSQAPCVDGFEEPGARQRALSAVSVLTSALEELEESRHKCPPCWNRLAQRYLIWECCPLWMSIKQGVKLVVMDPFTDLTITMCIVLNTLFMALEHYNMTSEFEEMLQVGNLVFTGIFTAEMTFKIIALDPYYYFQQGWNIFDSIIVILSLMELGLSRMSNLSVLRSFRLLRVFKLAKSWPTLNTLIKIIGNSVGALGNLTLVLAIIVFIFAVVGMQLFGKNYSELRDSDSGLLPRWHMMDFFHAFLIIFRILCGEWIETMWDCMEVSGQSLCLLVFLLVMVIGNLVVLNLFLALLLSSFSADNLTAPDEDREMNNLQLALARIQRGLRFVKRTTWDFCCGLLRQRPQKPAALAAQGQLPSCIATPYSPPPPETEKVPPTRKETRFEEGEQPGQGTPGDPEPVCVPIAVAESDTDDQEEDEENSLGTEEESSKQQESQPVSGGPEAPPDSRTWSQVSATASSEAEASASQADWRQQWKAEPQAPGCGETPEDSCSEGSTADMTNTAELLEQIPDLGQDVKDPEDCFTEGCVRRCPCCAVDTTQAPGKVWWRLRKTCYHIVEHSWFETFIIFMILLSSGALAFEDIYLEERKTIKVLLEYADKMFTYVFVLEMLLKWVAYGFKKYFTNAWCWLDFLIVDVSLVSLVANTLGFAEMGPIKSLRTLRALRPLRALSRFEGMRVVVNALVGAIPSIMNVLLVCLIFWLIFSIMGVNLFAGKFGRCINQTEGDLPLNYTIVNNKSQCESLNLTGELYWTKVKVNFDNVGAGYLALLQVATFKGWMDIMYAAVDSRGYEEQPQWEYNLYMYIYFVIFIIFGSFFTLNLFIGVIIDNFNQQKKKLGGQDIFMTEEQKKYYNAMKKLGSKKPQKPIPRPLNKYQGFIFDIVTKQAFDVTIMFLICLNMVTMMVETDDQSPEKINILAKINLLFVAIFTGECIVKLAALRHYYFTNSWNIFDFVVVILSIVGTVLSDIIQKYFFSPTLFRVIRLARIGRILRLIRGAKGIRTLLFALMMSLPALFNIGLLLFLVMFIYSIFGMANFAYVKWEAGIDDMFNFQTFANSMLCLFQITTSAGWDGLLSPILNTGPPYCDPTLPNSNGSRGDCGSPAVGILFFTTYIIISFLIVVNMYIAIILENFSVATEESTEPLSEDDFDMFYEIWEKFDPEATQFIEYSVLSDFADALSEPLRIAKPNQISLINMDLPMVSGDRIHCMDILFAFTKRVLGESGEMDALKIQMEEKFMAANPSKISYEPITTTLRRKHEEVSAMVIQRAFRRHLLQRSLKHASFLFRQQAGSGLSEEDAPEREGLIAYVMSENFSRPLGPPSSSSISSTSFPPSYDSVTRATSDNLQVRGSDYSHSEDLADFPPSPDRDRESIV

T1 sequence (Q13936 whole entry): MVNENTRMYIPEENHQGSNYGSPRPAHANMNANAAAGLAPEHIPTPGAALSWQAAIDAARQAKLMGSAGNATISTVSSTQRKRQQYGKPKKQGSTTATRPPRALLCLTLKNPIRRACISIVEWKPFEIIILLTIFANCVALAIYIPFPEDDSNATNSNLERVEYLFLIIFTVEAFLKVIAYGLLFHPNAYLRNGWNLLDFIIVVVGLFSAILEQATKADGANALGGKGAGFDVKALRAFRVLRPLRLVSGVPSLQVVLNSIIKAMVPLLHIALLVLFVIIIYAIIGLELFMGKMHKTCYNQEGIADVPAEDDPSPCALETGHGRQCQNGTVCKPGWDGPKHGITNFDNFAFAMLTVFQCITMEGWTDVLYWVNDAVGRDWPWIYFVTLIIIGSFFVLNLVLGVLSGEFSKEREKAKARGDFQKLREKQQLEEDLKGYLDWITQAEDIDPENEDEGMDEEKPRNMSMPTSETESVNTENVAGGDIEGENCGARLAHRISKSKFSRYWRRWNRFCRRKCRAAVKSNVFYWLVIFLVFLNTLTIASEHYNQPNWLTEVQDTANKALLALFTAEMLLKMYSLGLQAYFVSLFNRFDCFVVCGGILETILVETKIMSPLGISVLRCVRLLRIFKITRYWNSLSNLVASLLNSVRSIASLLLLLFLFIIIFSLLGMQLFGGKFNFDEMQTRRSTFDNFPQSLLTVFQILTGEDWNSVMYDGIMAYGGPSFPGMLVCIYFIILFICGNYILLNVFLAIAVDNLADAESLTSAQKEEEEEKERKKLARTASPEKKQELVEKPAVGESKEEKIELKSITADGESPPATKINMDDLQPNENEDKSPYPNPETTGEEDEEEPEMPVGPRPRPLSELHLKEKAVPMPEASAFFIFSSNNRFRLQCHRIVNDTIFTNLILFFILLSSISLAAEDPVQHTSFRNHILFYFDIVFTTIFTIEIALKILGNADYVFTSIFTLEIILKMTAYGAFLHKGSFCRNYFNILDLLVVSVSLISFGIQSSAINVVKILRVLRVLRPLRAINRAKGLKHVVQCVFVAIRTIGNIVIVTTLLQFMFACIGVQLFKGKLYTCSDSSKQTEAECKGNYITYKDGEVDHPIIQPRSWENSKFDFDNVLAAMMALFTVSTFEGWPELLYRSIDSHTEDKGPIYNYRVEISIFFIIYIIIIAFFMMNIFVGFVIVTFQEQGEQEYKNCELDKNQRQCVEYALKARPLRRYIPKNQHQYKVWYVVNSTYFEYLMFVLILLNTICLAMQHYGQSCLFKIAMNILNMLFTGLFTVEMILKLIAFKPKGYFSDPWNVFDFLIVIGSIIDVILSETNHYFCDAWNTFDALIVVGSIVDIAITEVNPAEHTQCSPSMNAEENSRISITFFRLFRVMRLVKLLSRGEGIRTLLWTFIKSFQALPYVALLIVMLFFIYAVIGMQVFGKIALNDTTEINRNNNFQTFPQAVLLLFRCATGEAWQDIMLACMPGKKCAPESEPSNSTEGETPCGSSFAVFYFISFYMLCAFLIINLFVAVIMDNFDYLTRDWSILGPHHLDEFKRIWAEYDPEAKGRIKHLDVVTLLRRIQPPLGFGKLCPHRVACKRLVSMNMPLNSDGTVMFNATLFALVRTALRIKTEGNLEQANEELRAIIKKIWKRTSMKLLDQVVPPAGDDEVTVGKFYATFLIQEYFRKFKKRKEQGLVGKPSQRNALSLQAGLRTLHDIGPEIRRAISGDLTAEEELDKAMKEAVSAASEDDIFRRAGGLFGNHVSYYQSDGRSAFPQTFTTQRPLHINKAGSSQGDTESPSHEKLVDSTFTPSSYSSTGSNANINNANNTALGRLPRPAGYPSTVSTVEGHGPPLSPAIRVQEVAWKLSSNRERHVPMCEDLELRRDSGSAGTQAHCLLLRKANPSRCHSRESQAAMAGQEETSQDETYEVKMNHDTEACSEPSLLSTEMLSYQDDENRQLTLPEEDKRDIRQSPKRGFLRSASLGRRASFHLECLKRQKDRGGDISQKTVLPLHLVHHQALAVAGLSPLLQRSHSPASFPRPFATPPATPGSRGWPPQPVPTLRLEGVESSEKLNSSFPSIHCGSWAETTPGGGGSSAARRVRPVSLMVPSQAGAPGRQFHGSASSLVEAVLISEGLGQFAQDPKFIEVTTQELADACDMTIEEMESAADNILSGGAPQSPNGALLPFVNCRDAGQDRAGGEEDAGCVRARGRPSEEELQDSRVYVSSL

CN(C)C(=O)C(CCN1CCC(O)(c2ccc(Cl)cc2)CC1)(c1ccccc1)c1ccccc1 [Loperamide]
pIC50 [1]: 5.39
pIC50 [2]: 6.28

From article PMC10527387, “The Potential Mechanisms behind Loperamide-Induced Cardiac Arrhythmias Associated with Human Abuse and Extreme Overdose” (Biomolecules, 2023)
